Measured values reported in article PMC8199500, “Novel Bis- and Mono-Pyrrolo[2,3-d]pyrimidine and Purine Derivatives: Synthesis, Computational Analysis and Antiproliferative Evaluation” (Molecules, 2021).

What was measured:
[1] = test system: cervical carcinoma (HeLa) cells; assay: MTT proliferation assay, HeLa cells; assay type: cell-based, human; settings: 72 h incubation
Protocol: (§1) Human carcinoma cell lines A549 (lung carcinoma), HeLa (cervical carcinoma), SW620 (colorectal adenocarcinoma, metastatic) and CFPAC-1 (pancreatic cancer, derived from metastatic: liver), and normal human foreskin (HFF-1) fibroblasts were obtained from the American Type Culture Collection (ATCC, Manassas, VA, USA). Cells were cultured in humidified atmosphere at 37 °C with 5% CO2. As growth medium, Dulbecco′s modified Eagle medium (DMEM) was used with the addition of fetal bovine serum (10%), L-glutamine (2 mM) and antibiotics: streptomycin ([…]) and penicillin (100 U/mL).
(§2) Cells were seeded onto 96-well microtiter plates at a seeding density of 3000 cells/well for carcinoma cell lines, and 5000 cells/well for normal human fibroblasts. The next day, cells were treated with test agents in five different concentrations (0.01–100 µM) and further incubated for 72 h. […] Following 72 h incubation, the MTT assay was performed and measured absorbances were transformed into percentage of cell growth as described previously. Results were obtained from three independent experiments. IC50 values were calculated using linear regression analysis and results were statistically analyzed by ANOVA, Tukey post-hoc test (p < 0.05).

[2] = test system: metastatic colorectal adenocarcinoma (SW620) cells; assay: MTT proliferation assay, SW620 cells; assay type: cell-based, human
Protocol: as §1, §2

[3] = test system: ductal pancreatic adenocarcinoma (CFPAC-1) cells; assay: MTT proliferation assay, CFPAC-1 cells; assay type: cell-based, human
Protocol: as §1, §2

[4] = test system: lung adenocarcinoma (A549) cells; assay: MTT proliferation assay, A549 cells; assay type: cell-based, human
Protocol: as §1, §2

[5] = test system: normal human foreskin fibroblasts (HFF-1); assay: MTT proliferation assay, normal fibroblasts HFF-1; assay type: cell-based; settings: 72 h incubation
Protocol: as §1, §2

[6] = Homo sapiens, SW-620, 72 h incubation
[7] = Homo sapiens, CFPAC-1, 72 h incubation
[8] = Homo sapiens, A549, 72 h incubation

IC50 [1] [µM] | IC50 ([2]; 72 h incubation) [µM] | IC50 ([3]; 72 h incubation) [µM] | IC50 ([4]; 72 h incubation) [µM] | IC50 ([1]; Homo sapiens, HeLa) [µM] | IC50 [2, 6] [µM] | IC50 [3, 7] [µM] | IC50 [4, 8] [µM] | melting point [°C] | Compound | IC50 [5] [µM]
– | – | – | – | 54.6 ± 5.2 | > 100 | 77.4 ± 3.5 | 69 ± 1.2 | 187 to 189 | c1nc(N2CCCC2)c2ccn(CCn3cc(COc4ccc(-c5ccc(OCc6cn(CCn7ccc8c(N9CCCC9)ncnc87)nn6)cc5)cc4)nn3)c2n1 [7b, 4,4′-Bis{[1-(2-(4-(pyrrolidin-1-yl)-7H-pyrrolo[2,3-d]pyrimidin-7-yl)ethyl)-1H-1,2,3-triazol-4-yl]methoxy}-1,1′-biphenyl] | –
– | – | – | – | 80 ± 1.5 | > 100 | 65.3 ± 5.7 | > 100 | 170 to 172 | c1nc(N2CCCC2)c2ccn(CCn3cc(CCCc4cn(CCn5ccc6c(N7CCCC7)ncnc65)nn4)nn3)c2n1 [7c, 1,3-Bis{1-[2-(4-(pyrrolidin-1-yl)-7H-pyrrolo[2,3-d]pyrimidin-7-yl)ethyl]-1H-1,2,3-triazol-4-yl}propane] | –
– | – | – | – | 41.2 ± 0.99 | > 100 | 53.9 ± 3.4 | > 100 | – | c1nc(N2CCCCC2)c2ncn(CCn3cc(CCCc4cn(CCn5cnc6c(N7CCCCC7)ncnc65)nn4)nn3)c2n1 [9c, 1,3-Bis{1-[2-(6-(piperidin-1-yl)-9H-purin-9-yl)ethyl]-1H-1,2,3-triazol-4-yl}propane] | –
– | – | – | – | 17.1 ± 1.3 | 35.7 ± 0.79 | 23.4 ± 4.2 | 58.7 ± 10.2 | 233 to 236 | C#CCOc1ccc(OCc2cn(CCn3cnc4c(N5CCCCC5)ncnc43)nn2)cc1 [9e, 6-(piperidin-1-yl)-9-{2-[4-((4-(prop-2-yn-1-yloxy)phenoxy)methyl)-1H-1,2,3-triazol-1-yl]ethyl}-9H-purine] | –
– | – | – | – | 72.2 ± 9 | > 100 | 75.2 ± 12.2 | > 100 | – | C#CCCCc1cn(CCn2cnc3c(N4CCCCC4)ncnc32)nn1 [9g, 9-{2-[4-(pent-4-yn-1-yl)-1H-1,2,3-triazol-1-yl]ethyl}-6-(piperidin-1-yl)-9H-purine] | –
– | – | – | – | 60.6 ± 5.9 | 98.3 ± 7.4 | 48.5 ± 1.6 | 95 ± 3.2 | – | c1nc(N2CCCC2)c2ncn(CCn3cc(COc4ccc(OCc5cn(CCn6cnc7c(N8CCCC8)ncnc76)nn5)cc4)nn3)c2n1 [10a, 1,4-Bis{[1-(2-(6-(pyrrolidin-1-yl)-9H-purin-9-yl)ethyl)-1H-1,2,3-triazol-4-yl]methoxy}benzene] | –
– | – | – | – | > 100 | > 100 | > 100 | > 100 | – | Nc1ncnc2c1ncn2CCn1cc(COc2ccc(OCc3cn(CCn4cnc5c(N)ncnc54)nn3)cc2)nn1 [11a, 1,4-Bis{[1-(2-(6-amino-9H-purin-9-yl)ethyl)-1H-1,2,3-triazol-4-yl]methoxy}benzene] | –
– | – | – | – | > 100 | > 100 | > 100 | > 100 | > 280 | C#CCOc1ccc(OCc2cn(CCn3cnc4c(N)ncnc43)nn2)cc1 [11e, 6-amino-9-{2-[4-((4-(prop-2-yn-1-yloxy)phenoxy)methyl)-1H-1,2,3-triazol-1-yl]ethyl}-9H-purine] | –
– | – | – | – | > 100 | > 100 | > 100 | > 100 | 226 to 228 | C#CCCCc1cn(CCn2cnc3c(N)ncnc32)nn1 [11g, 6-Amino-9-{2-[4-(pent-4-yn-1-yl)-1H-1,2,3-triazol-1-yl]ethyl}-9H-purine] | –
– | – | – | – | > 100 | > 100 | > 100 | > 100 | 191 to 193 | C#CCOCc1cn(CCn2cnc3c(N)ncnc32)nn1 [11h, 6-amino-9-{2-[4-((prop-2-yn-1-yloxy)methyl)-1H-1,2,3-triazol-1-yl]ethyl}-9H-purine] | –
> 100 | > 100 | > 100 | > 100 | – | – | – | – | – | {1-[2-(4-(Pyrrolidin-1-yl)-7H-pyrrolo[2,3-d]pyrimidin-7-yl)ethyl]-1H-1,2,3-triazol-4-yl}methyl ether [7d] | –
34.7 ± 12.1 | 66.1 ± 3 | 56.8 ± 2.9 | 73.1 ± 7.7 | – | – | – | – | – | {1-[2-(6-(Piperidin-1-yl)-9H-purin-9-yl)ethyl]-1H-1,2,3-triazol-4-yl}methyl ether [9d] | –
66.9 ± 11.2 | 63.4 ± 3.6 | 52.5 ± 4.6 | 87.3 ± 4.4 | – | – | – | – | – | {1-[2-(6-(Piperidin-1-yl)-9H-purin-9-yl)ethyl]-1H-1,2,3-triazol-4-yl}methyl ether [10d] | –
> 100 | > 100 | > 100 | > 100 | – | – | – | – | – | {1-[2-(6-Amino-9H-purin-9-yl)ethyl]-1H-1,2,3-triazol-4-yl}methyl ether [11d] | –

Second part, the compound before the results:

Compound | IC50 [1] [µM] | IC50 ([2]; 72 h incubation) [µM] | IC50 ([3]; 72 h incubation) [µM] | IC50 ([4]; 72 h incubation) [µM] | IC50 ([1]; Homo sapiens, HeLa) [µM] | IC50 [2, 6] [µM] | IC50 [3, 7] [µM] | IC50 [4, 8] [µM] | melting point [°C] | IC50 [5] [µM]
6-(piperidin-1-yl)-9-{2-[4-(((4′-(prop-2-yn-1-yloxy)-[1,1′-biphenyl]-4-yl)oxy)methyl)-1H-1,2,3-triazol-1-yl]ethyl}-9H-purine [10f] | 8.1 ± 2.2 | 98 ± 1.3 | 6.5 ± 0.78 | 62.1 ± 2.3 | – | – | – | – | – | –
Clc1ncnc2c1ccn2CCn1cc(COc2ccc(OCc3cn(CCn4ccc5c(Cl)ncnc54)nn3)cc2)nn1 [5a, 1,4-Bis{[1-(2-(4-chloro-7H-pyrrolo[2,3-d]pyrimidin-7-yl)ethyl)-1H-1,2,3-triazol-4-yl]methoxy}benzene] | – | – | – | – | 77 ± 2.6 | > 100 | > 100 | > 100 | – | –
Clc1ncnc2c1ccn2CCn1cc(COc2ccc(-c3ccc(OCc4cn(CCn5ccc6c(Cl)ncnc65)nn4)cc3)cc2)nn1 [5b, 4,4′-Bis{[1-(2-(4-chloro-7H-pyrrolo[2,3-d]pyrimidin-7-yl)ethyl)-1H-1,2,3-triazol-4-yl]-methoxy}-1,1′-biphenyl] | – | – | – | – | > 100 | > 100 | > 100 | 6.3 ± 1.2 | – | 0.13
Clc1ncnc2c1ccn2CCn1cc(CCCc2cn(CCn3ccc4c(Cl)ncnc43)nn2)nn1 [5c, 1,3-Bis{1-[2-(4-chloro-7H-pyrrolo[2,3-d]pyrimidin-7-yl)ethyl]-1H-1,2,3-triazol-4-yl}propane] | – | – | – | – | 99.7 ± 5.9 | > 100 | 74.9 ± 3.8 | 99.6 ± 1.5 | – | –
C#CCCCc1cn(CCn2ccc3c(Cl)ncnc32)nn1 [5g, 4-chloro-7-{2-[4-(pent-4-yn-1-yl)-1H-1,2,3-triazol-1-yl]ethyl}-7H-pyrrolo[2,3-d]pyrimidine] | – | – | – | – | 75 ± 3.5 | 80.5 ± 14.9 | 19.5 ± 4 | > 100 | – | –
c1nc(N2CCCCC2)c2ccn(CCn3cc(COc4ccc(OCc5cn(CCn6ccc7c(N8CCCCC8)ncnc76)nn5)cc4)nn3)c2n1 [6a, 1,4-Bis{[1-(2-(4-(piperidin-1-yl)-7H-pyrrolo[2,3-d]pyrimidin-7-yl)ethyl)-1H-1,2,3-triazol-4-yl]methoxy}benzene] | – | – | – | – | > 100 | > 100 | > 100 | > 100 | 185 to 187 | –
c1nc(N2CCCCC2)c2ccn(CCn3cc(COc4ccc(-c5ccc(OCc6cn(CCn7ccc8c(N9CCCCC9)ncnc87)nn6)cc5)cc4)nn3)c2n1 [6b, 4,4′-Bis{[1-(2-(4-(piperidin-1-yl)-7H-pyrrolo[2,3-d]pyrimidin-7-yl)ethyl)-1H-1,2,3-triazol-4-yl]methoxy}-1,1′-biphenyl] | – | – | – | – | 68.5 ± 3.2 | 24.7 ± 8.7 | 17.4 ± 6.3 | 53.9 ± 2.1 | 137 to 139 | –
{1-[2-(4-Chloro-7H-pyrrolo[2,3-d]pyrimidin-7-yl)ethyl]-1H-1,2,3-triazol-4-yl}methyl ether [5d] | > 100 | 53.5 ± 4.8 | 36.5 ± 3.9 | > 100 | – | – | – | – | – | –
